Patent US20160280688A1, “SUBSTITUTED PHENYLALANINE DERIVATIVES” (BAYER PHARMA AKTIENGESELLSCHAFT, priority 2013, published 2016)
pIC50: −log10 of the molar value. Structures can show the parent of a compound that is named as a salt.

Columns and labels:
Format in all cases: biochemical
human factor XIa = target: T1, human factor XIa (Homo sapiens, UniProt P03951); experiment: Measurement of FXIa inhibition (fluorogenic peptide substrate Boc-Glu(OBzl)-Ala-Arg-AMC); settings: factor XIa from Kordia, 15 min preincubation, 30 min at 22° C., fluorescence
T1 construct: purchased Kordia
Method: To determine the factor XIa inhibition of the substances according to the invention, a biochemical test system is used which utilizes the reaction of a peptidic factor XIa substrate to determine the enzymatic activity of human factor XIa. Here, factor XIa cleaves from the peptic factor XIa substrate the C-terminal aminomethylcoumarin (AMC), the fluorescence of which is measured. The determinations are carried out in microtitre plates.
(§1) Test substances are dissolved in dimethyl sulphoxide and serially diluted in dimethyl sulphoxide (3000 μM to 0.0078 μM; resulting final concentrations in the test: 50 μM to 0.00013 μM). In each case 1 μl of the diluted substance solutions are placed into the wells of white microtitre plates from Greiner (384 wells). Subsequently, the following are added successively: 20 μl of assay buffer (50 mmol/l Tris buffer pH 7.4; 100 mmol/l sodium chloride; 5 mmol/l calcium chloride; 0.1% bovine serum albumin) and 20 μl of factor XIa from Kordia (0.45 nM in assay buffer). After 15 min of incubation, the enzyme reaction is started by addition of 20 μl of the factor XIa substrate Boc-Glu(OBzl)-Ala-Arg-AMC dissolved in assay buffer (10 μM in assay buffer) from Bachem, the mixture is incubated at room temperature (22° C.) for 30 min and fluorescence is then measured (excitation: 360 nm, emission: 460 nm). The measured emissions of the test batches with test substance are compared to those of control batches without test substance (only dimethyl sulphoxide instead of test substance in dimethyl sulphoxide), and IC50 values are calculated from the concentration/activity relationships.

human and animal plasma = experiment: Determination of the anticoagulatory activity: activated partial thromboplastin time (aPTT) in plasma; settings: in vitro in plasma, C.K. Prest kit, 3 min at 37° C.
Method: The anticoagulatory activity of the test substances is determined in vitro in human and animal plasma (for example mouse, rat, rabbit, pig and dog plasma). To this end, blood is drawn off in a mixing ratio of sodium citrate/blood of 1:9 using a 0.11 molar sodium citrate solution as receiver. Immediately after the blood has been drawn off, it is mixed thoroughly and centrifuged at about 4000 g for 15 minutes. The supernatant is pipetted off.
The activated partial thromboplastin time (aPTT) is determined in the presence of varying concentrations of test substance or the corresponding solvent using a commercial test kit (C.K. Prest from Diagnostica Stago). The test compounds are incubated with the plasma and the PTT reagent (cephalin, kaolin) at 37° C. for 3 minutes. Coagulation is then started by addition of a 25 mM aqueous calcium chloride solution, and the time when coagulation occurs is determined. The concentration of test substance which brings about a 1.5-fold extension of the aPTT is determined Activity data from this test are listed in Table B below: […]

human plasmin = target: T2, human plasmin (Homo sapiens, UniProt P00747); experiment: Measurement of plasmin inhibition (fluorogenic peptide substrate MeOSuc-Ala-Phe-Lys-AMC); settings: plasmin from Kordia, 15 min preincubation, 30 min at 22° C., fluorescence
T2 construct: purchased Kordia
Method: The plasmin inhibition of the inventive substances is determined using a biochemical test system which utilizes the reaction of a peptidic plasmin substrate to determine the enzymatic activity of human plasmin. Here, plasmin cleaves from the peptic plasmin substrate the C-terminal aminomethylcoumarin (AMC), the fluorescence of which is measured. The determinations are carried out in microtitre plates.
as §1, with “plasmin” for “factor XIa”, “(0.3 μg/ml” for “(0.45 nM”, “MeOSuc-Ala-Phe-Lys-AMC” for “Boc-Glu(OBzl)-Ala-Arg-AMC”, “(150” for “(10”, “ICso” for “IC50”

T1 sequence (P03951 388-625 limits assumed): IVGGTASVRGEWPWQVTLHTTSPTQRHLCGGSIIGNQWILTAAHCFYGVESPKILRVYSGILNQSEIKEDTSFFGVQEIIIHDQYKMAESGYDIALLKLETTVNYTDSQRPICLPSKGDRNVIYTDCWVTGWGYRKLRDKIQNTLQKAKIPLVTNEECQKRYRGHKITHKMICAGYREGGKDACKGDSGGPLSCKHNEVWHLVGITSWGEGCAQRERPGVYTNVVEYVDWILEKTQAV
T1 sequence (P03951 19-387 partner limits assumed): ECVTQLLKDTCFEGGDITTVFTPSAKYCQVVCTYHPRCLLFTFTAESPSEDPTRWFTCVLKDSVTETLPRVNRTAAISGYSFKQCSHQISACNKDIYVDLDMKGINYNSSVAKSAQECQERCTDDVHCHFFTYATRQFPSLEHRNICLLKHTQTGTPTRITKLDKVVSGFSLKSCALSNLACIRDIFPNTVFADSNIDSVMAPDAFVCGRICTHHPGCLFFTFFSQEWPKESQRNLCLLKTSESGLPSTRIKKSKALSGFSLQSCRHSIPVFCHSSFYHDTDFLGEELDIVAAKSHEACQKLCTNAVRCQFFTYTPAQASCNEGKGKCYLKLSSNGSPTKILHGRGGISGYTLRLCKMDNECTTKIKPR
T2 sequence (P00747 581-810 limits assumed): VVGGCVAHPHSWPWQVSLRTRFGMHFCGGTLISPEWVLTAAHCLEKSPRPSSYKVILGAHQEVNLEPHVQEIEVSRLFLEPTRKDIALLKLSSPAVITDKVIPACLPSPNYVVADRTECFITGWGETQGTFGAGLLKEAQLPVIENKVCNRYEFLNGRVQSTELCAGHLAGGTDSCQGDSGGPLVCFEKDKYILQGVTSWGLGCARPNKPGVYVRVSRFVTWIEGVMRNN
T2 sequence (P00747 97-580 partner limits assumed): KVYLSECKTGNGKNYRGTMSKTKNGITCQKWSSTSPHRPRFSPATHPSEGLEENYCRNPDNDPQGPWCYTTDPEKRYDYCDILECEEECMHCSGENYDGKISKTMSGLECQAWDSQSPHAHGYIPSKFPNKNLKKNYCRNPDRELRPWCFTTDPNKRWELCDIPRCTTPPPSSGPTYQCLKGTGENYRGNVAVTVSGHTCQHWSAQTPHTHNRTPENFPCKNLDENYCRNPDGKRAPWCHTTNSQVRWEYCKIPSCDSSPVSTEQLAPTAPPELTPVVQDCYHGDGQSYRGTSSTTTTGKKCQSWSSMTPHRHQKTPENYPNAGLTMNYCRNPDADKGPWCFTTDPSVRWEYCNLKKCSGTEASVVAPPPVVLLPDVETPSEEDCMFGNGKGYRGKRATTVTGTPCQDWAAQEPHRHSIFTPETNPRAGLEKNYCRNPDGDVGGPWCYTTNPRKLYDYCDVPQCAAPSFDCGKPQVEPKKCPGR

SMILES	pIC50 (human factor XIa)	pIC50 (human plasmin)	aPTT (concentration of test substance which brings about a 1.5-fold extension of the aPTT) (human and animal plasma)
Cc1cc2oc(C3CC3)nc2cc1-c1ccc(C[C@H](NC(=O)[C@H]2CC[C@H](CN)CC2)C(=O)Nc2ccc(-c3nnn[nH]3)cc2)cc1.Cl (relative stereo) [Example 26, N-alpha-{[trans-4-(Aminomethyl)cyclohexyl]carbonyl}-4-(2-cyclopropyl-6-methyl-1,3-benzoxazol-5-yl)-N-[4-(1H-tetrazol-5-yl)phenyl]-L-phenylalaninamide hydrochloride]	8.85	8.57	0.18 µmol/L
Cc1cc2[nH]c(C(C)C)nc2cc1-c1ccc(C[C@@H](NC(=O)C2CCC(CN)CC2)C(=O)Nc2ccc3[nH]c(=O)[nH]c3c2)cc1 (single isomer, unassigned; enantiomer 1) [Example 38, N-alpha-{[trans-4-(Aminomethyl)cyclohexyl]carbonyl}-4-(2-isopropyl-6-methyl-1H-benzimidazol-5-yl)-N-(2-oxo-2,3-dihydro-1H-benzimidazol-5-yl)-D-phenylalaninamide hydrochloride (Enantiomer 1)]	7.43	7.70	
Cc1cc2nc[nH]c2cc1-c1ccc(C[C@H](NC(=O)C2CCC(CN)CC2)C(=O)Nc2ccc(-c3nn[nH]n3)cc2)cc1 (stereo partly drawn) [Example 1, N-alpha-{[trans-4-(Aminomethyl)cyclohexyl]carbonyl}-4-(5-methyl-1H-benzimidazol-6-yl)-N-[4-(2H-tetrazol-5-yl)phenyl]-L-phenylalaninamide hydrochloride]	9.05	7.66	0.07 µmol/L
Cc1cc2nc[nH]c2cc1-c1ccc(C[C@H](NC(=O)[C@H]2CC[C@H](CN)CC2)C(=O)Nc2ccc3c(=O)[nH][nH]c3c2)cc1 [Example 8, N-alpha-{[trans-4-(Aminomethyl)cyclohexyl]carbonyl}-4-(5-methyl-1H-benzimidazol-6-yl)-N-(3-oxo-2,3-dihydro-1H-indazol-6-yl)-L-phenylalaninamide hydrochloride]	8.22	7.68	
NC[C@H]1CC[C@H](C(=O)N[C@@H](Cc2ccc(-c3ccc4c(c3)NC(=O)CC4)cc2)C(=O)Nc2ccc(-c3nn[nH]n3)cc2)CC1 [Example 9, N-alpha-{[trans-4-(Aminomethyl)cyclohexyl]carbonyl}-4-(2-oxo-1,2,3,4-tetrahydroquinolin-7-yl)-N-[4-(2H-tetrazol-5-yl)phenyl]-L-phenylalaninamide hydrochloride]	8.43	7.60	
NC[C@H]1CC[C@H](C(=O)N[C@@H](Cc2ccc(-c3ccc4c(c3)NC(=O)CC4)cc2)C(=O)Nc2ccc(-c3nn[nH]n3)c(F)c2)CC1 [Example 12, N-alpha-{[trans-4-(Aminomethyl)cyclohexyl]carbonyl}-N-[3-fluoro-4-(2H-tetrazol-5-yl)phenyl]-4-(2-oxo-1,2,3,4-tetrahydroquinolin-7-yl)-L-phenylalaninamide hydrochloride]	8.62	8.23	
Cc1cc2[nH]c(C(C)C)nc2cc1-c1ccc(C[C@H](NC(=O)[C@H]2CC[C@H](CN)CC2)C(=O)Nc2ccc3[nH]c(=O)[nH]c3c2)cc1 [Example 19, N-alpha-{[trans-4-(Aminomethyl)cyclohexyl]carbonyl}-4-(2-isopropyl-6-methyl-1H-benzimidazol-5-yl)-N-(2-oxo-2,3-dihydro-1H-benzimidazol-5-yl)-L-phenylalaninamide]	8.51	8.89	
Cc1cc2[nH]c(C3CC3)nc2cc1-c1ccc(C[C@H](NC(=O)[C@H]2CC[C@H](CN)CC2)C(=O)Nc2cc(Cl)c3[nH]c(=O)[nH]c3c2)cc1 [Example 20, N-alpha-{[trans-4-(Aminomethyl)cyclohexyl]carbonyl}-N-(7-chloro-2-oxo-2,3-dihydro-1H-benzimidazol-5-yl)-4-(2-cyclopropyl-6-methyl-1H-benzimidazol-5-yl)-L-phenylalaninamide]	9.05	9.40	0.26 µmol/L
Cc1nc2[nH]c(C3CC3)nc2cc1-c1ccc(C[C@H](NC(=O)[C@H]2CC[C@H](CN)CC2)C(=O)Nc2ccc3[nH]c(=O)[nH]c3c2)cc1 [Example 21, N-alpha-{[trans-4-(Aminomethyl)cyclohexyl]carbonyl}-4-(2-cyclopropyl-5-methyl-1H-imidazo[4,5-b]pyridin-6-yl)-N-(2-oxo-2,3-dihydro-1H-benzimidazol-5-yl)-L-phenylalaninamide]	9.15	9.40	0.3 µmol/L
Cc1cc2[nH]c(C(C)C)nc2cc1-c1ccc(C[C@H](NC(=O)[C@H]2CC[C@H](CN)CC2)C(=O)Nc2ccc3nc(C(F)(F)C(F)(F)F)[nH]c3c2)cc1 [Example 25, N-alpha-{[trans-4-(Aminomethyl)cyclohexyl]carbonyl}-4-(2-isopropyl-6-methyl-1H-benzimidazol-5-yl)-N-[2-(pentafluoroethyl)-1H-benzimidazol-6-yl]-L-phenylalaninamide hydrochloride]	7.89	8.77	0.96 µmol/L

Continued by rising pIC50 (human factor XIa), values first:

pIC50 (human factor XIa)	pIC50 (human plasmin)	SMILES	aPTT (concentration of test substance which brings about a 1.5-fold extension of the aPTT) (human and animal plasma)
8.64	9.02	NC[C@H]1CC[C@H](C(=O)N[C@@H](Cc2ccc(-c3cc4nc(C5CC5)[nH]c4cc3Cl)cc2)C(=O)Nc2ccc3[nH]c(=O)[nH]c3c2)CC1 [Example 23, N-alpha-{[trans-4-(Aminomethyl)cyclohexyl]carbonyl}-4-(6-chloro-2-cyclopropyl-1H-benzimidazol-5-yl)-N-(2-oxo-2,3-dihydro-1H-benzimidazol-5-yl)-L-phenylalaninamide hydrochloride]	0.27 µmol/L
8.96	9.19	Cc1cc2[nH]c(C(C)C)nc2cc1-c1ccc(C[C@H](NC(=O)C2CCC(CN)CC2)C(=O)Nc2ccc3[nH]c(=O)[nH]c3c2)cc1 (single isomer, unassigned; enantiomer 2) [Example 39, N-alpha-{[trans-4-(Aminomethyl)cyclohexyl]carbonyl}-4-(2-isopropyl-6-methyl-1H-benzimidazol-5-yl)-N-(2-oxo-2,3-dihydro-1H-benzimidazol-5-yl)-L-phenylalaninamide hydrochloride (Enantiomer 2)]	
9.30	9.22	Cc1cc2[nH]c(C3CC3)nc2cc1-c1ccc(C[C@H](NC(=O)[C@H]2CC[C@H](CN)CC2)C(=O)Nc2cc(F)c3c(=O)[nH][nH]c3c2)cc1 [Example 22, N-alpha-{[trans-4-(Aminomethyl)cyclohexyl]carbonyl}-4-(2-cyclopropyl-6-methyl-1H-benzimidazol-5-yl)-N-(4-fluoro-3-oxo-2,3-dihydro-1H-indazol-6-yl)-L-phenylalaninamide hydrochloride]	0.18 µmol/L
9.30	8.85	Cc1cc2nc(C(C)C)[nH]c2cc1-c1ccc(C[C@H](NC(=O)[C@H]2CC[C@H](CN)CC2)C(=O)Nc2ccc(-c3nnc(C(F)(F)C(F)(F)C(=O)O)[nH]3)cc2)cc1 [Example 24, 3-[5-(4-{[N-{[trans-4-(Aminomethyl)cyclohexyl]carbonyl}-4-(2-isopropyl-6-methyl-1H-benzimidazol-5-yl)-L-phenylalanyl]amino}phenyl)-4H-1,2,4-triazol-3-yl]-2,2,3,3-tetrafluoropropanoic acid hydrochloride]	
